“And” between values parts separate entries of the source, which are not always exact repeats. Equal values may be shown once. “Also recorded” adds a separate entry of the source.
Assays:
[1] = Quinoxaline-2-carboxylic acid (Carbadox metabolite) residue in pig muscle (ham, chop), liver and kidney after flumecinol treatment; assay type: in vivo, pigs; parameters: key to amount of quinoxaline-2-carboxylic acid / quinoxaline-2-carboxylic acid content of the muscle tissue / quinoxaline-2-carboxylic acid content of the liver / quinoxaline-2-carboxylic acid content of the kidney: .0.: no detectable amount; conditions: for quinoxaline-2-carboxylic acid content of the kidney / quinoxaline-2-carboxylic acid content of the liver / quinoxaline-2-carboxylic acid content of the muscle tissue: average, n = 3; for amount of quinoxaline-2-carboxylic acid: individual animal
Description: (§1) Tests were carried out at a large-scale pig farm, where 25 mg/kg of body weight of Carbadox admixed with the fodder of the pigs were administered to pigs having a live weight of 40 kg. From a population fed with this fodder 27 animals, each weighing exactly 40 kg, were selected, by weighing them separately. The selected animals were railed off in a place suitable for further tests. From this time on (zero time) the animals were given the same fodder as before, except Carbadox.
(§2) The 27 animals were divided into three groups as follows:
(§3) Group I: 12 animals (ser. Nos. from 1 to 12) slaughtering: three animals each when starting the experiment (0 time) and on the 1st, 5th and 15th days (positive control group) Group II: 9 amimals (ser. Nos. from 13 to 21) treatment: a single 40 mg/kg of body weight dose of flumecinol at zero time. slaughtering: three animals each on the 1st, 5th and 15th days (group treated with a single dose of flumecinol) Group III: 6 animals (ser. Nos. 22 to 27) treatment: 40 mg/kg of body weight of flumecinol for three days, at zero time and on the 1st and 2nd day slaughtering: three animals each on the 5th and 15th days (group treated with flumecinol three times) Flumecinol is available as a micropellet containing 19.02% of active ingredient. From this and a 1% starch hydrolysate a suspension is prepared, containing 40 mg of flumecinol per 1 ml (dose used for one kg of body weight). The active compound was administered 8 o'clock in the morning, without previous fasting, through a stomach tube, in order to ensure exact conditions for the experiments. The animals were killed and samples were taken from 8 to 11 o'clock in the morning, whereupon the samples were transported into the analytical laboratory within one hour, under cooling.
(§4) Quinoxaline-2-carboxylic acid (a metabolite of Carbadox) was determined in the chop, liver and kidney tissues of three animals from each group. Each muscle and liver sample was subjected to organoleptic examination also (boiling test).
The quantity of quinoxaline-2-carboxylic acid was determined essentially following the method described in the USDA Chemistry Laboratory Guidebook (5007 Determination of Carbadox):
Following the alkaline hydrolysis of the muscle, liver and kidney samples, the hydrolysates were strongly acidified and the quinoxaline-2-carboxylic acid was extracted with ethyl acetate. The pH of the ethyl acetate extract was adjusted to 6 with a citric acid buffer, whereupon the mixture was extracted with benzene. In the next step the acid was esterified with a mixture of n-propanol and sulfuric acid, to yield propyl quinoxaline-2-carboxylate. The quantity of the latter compound was determined (after purification by thin layer chromatography) by gas chromatography. This cumbersome test procedure was always performed together with a […] control sample to which a known amount (0.2 μg-1.0 μg) of quinoxaline-2-carboxylic acid (standard) was added. The percentage of the active ingredient recovered from this sample was taken into account when calculating the residual active substance amount. In this way the error of the process was eliminated.
The test results, if not otherwise indicated, are given in μg/kg.
The quantity of quinoxaline-2-carboxylic acid in the above-specified slaughtering times is shownn in Table 1. The tests were carried out on three animals and Table 1 contains the results obtained on the individual animals. The results were also statistically evaluated for the various sorts of tissues, although in this specific case this was not really necessary, since according to the valid prescriptions the products of animal origin should not contain Carbadox at all, i.e. the limit is zero. Therefore, we considered it more important to determine when the animal tissues become entirely Carbadox-free, than to observe the differences among the tissues of the various groups of animals in the time when they were killed.

[2] = Organoleptic examination (boiling test) of muscle and liver tissues of pigs treated with Carbadox and flumecinol; assay type: in vivo; parameters: key to visual observation / organoleptic (odor) score: 1: negative; 2: slight strange (indeterminable) odor; 3: some strange (slight medicamentlike) odor; 4: definite strange (more expressed medicament) odor; conditions: for visual observation / organoleptic (odor) score: individual animal
Description: as §1, §2, §3, §4

[3] = system: polysubstrate monooxygenase enzyme system of the liver; assay: Induction of the polysubstrate monooxygenase enzyme system of the liver
[4] = one treatment 40 mg/kg, 1st day
[5] = one treatment 40 mg/kg, 1st day, chop
[6] = one treatment 40 mg/kg, 1st day, ham
[7] = one treatment 40 mg/kg, 5th day
[8] = one treatment 40 mg/kg, 5th day, chop
[9] = one treatment 40 mg/kg, 5th day, ham
[10] = one treatment 40 mg/kg, 15th day
[11] = one treatment 40 mg/kg, 15th day, chop
[12] = one treatment 40 mg/kg, 15th day, ham
[13] = one treatment 40 mg/kg, 1st day, liver
[14] = one treatment 40 mg/kg, 5th day, liver
[15] = one treatment 40 mg/kg, 15th day, liver
[16] = three treatments 40 mg/kg, 5th day
[17] = three treatments 40 mg/kg, 5th day, chop
[18] = three treatments 40 mg/kg, 5th day, ham
[19] = three treatments 40 mg/kg, 15th day
[20] = three treatments 40 mg/kg, 15th day, chop
[21] = three treatments 40 mg/kg, 15th day, ham
[22] = three treatments 40 mg/kg, 5th day, liver
[23] = three treatments 40 mg/kg, 15th day, liver

CCC(O)(c1ccccc1)c1cccc(C(F)(F)F)c1 (centres unmarked) [flumecinol, 1-(3-trifluoromethylphenyl)-1-(phenyl)-propan-1-ol]
residue in muscle tissues and kidney ([1]; 40 mg/kg daily for three subsequent days, 5th day): free of residue on the 5th day | residue in kidney (so in the source) ([1]; 40 mg/kg daily for three subsequent days, 15th day): free of residue on the 15th day | residual quinoxaline-2-carboxylic acid in muscle ([1]; 5th day after termination of Carbadox, one or three treatments): no residual quinoxaline-2-carboxylic acid could be detected | residual Carbadox in muscle vs. control ([1]; Group II, one dose, 24 hours after treatment): significantly lower than in the control animals slaughtered at the same time | residue in the kidney ([1]; addition in three subsequent days, kidney, 5th and 15th day): no residue was detected either on the 5th or on the 15th day | quinoxaline-2-carboxylic acid elimination from the muscle tissue ([1]; flumecinol treatment, muscle): significant acceleration of quinoxaline-2-carboxylic acid elimination from the muscle tissue | quinoxaline-2-carboxylic acid content of the kidney [1, 4]: 30.67 µg/kg | quinoxaline-2-carboxylic acid content of the liver [1, 4]: 64.67 µg/kg | quinoxaline-2-carboxylic acid content of the muscle tissue [1, 5]: 5.33 µg/kg | quinoxaline-2-carboxylic acid content of the muscle tissue [1, 6]: 1.33 µg/kg | quinoxaline-2-carboxylic acid content of the muscle tissue ([1]; one treatment 40 mg/kg, 1st day, total): 3.33 µg/kg | quinoxaline-2-carboxylic acid content of the kidney [1, 7]: 10.00 µg/kg | quinoxaline-2-carboxylic acid content of the liver [1, 7]: 12.00 µg/kg | quinoxaline-2-carboxylic acid content of the muscle tissue [1, 8]: .0. | quinoxaline-2-carboxylic acid content of the muscle tissue [1, 9]: .0. | quinoxaline-2-carboxylic acid content of the muscle tissue ([1]; one treatment 40 mg/kg, 5th day, total): .0. | quinoxaline-2-carboxylic acid content of the kidney [1, 10]: .0. | quinoxaline-2-carboxylic acid content of the liver [1, 10]: 7.33 µg/kg | quinoxaline-2-carboxylic acid content of the muscle tissue [1, 11]: .0. | quinoxaline-2-carboxylic acid content of the muscle tissue [1, 12]: .0. | quinoxaline-2-carboxylic acid content of the muscle tissue ([1]; one treatment 40 mg/kg, 15th day, total): .0. | amount of quinoxaline-2-carboxylic acid [1, 5]: 4 µg/kg and 6 µg/kg | amount of quinoxaline-2-carboxylic acid [1, 6]: 4 µg/kg | amount of quinoxaline-2-carboxylic acid ([1]; one treatment 40 mg/kg, 1st day, ham, symbol): .0. | amount of quinoxaline-2-carboxylic acid ([1]; one treatment 40 mg/kg, 1st day, kidney): 38 µg/kg and 30 µg/kg and 24 µg/kg | amount of quinoxaline-2-carboxylic acid [1, 13]: 58 µg/kg and 64 µg/kg and 72 µg/kg | amount of quinoxaline-2-carboxylic acid [1, 8]: .0. | amount of quinoxaline-2-carboxylic acid [1, 9]: .0. | amount of quinoxaline-2-carboxylic acid ([1]; one treatment 40 mg/kg, 5th day, kidney): 10 µg/kg and 8 µg/kg and 12 µg/kg | amount of quinoxaline-2-carboxylic acid [1, 14]: 10 µg/kg and 12 µg/kg and 14 µg/kg | amount of quinoxaline-2-carboxylic acid [1, 11]: .0. | amount of quinoxaline-2-carboxylic acid [1, 12]: .0. | amount of quinoxaline-2-carboxylic acid ([1]; one treatment 40 mg/kg, 15th day, kidney): .0. | amount of quinoxaline-2-carboxylic acid [1, 15]: 8 µg/kg and 6 µg/kg | metabolite residue in liver ([1]; single 40 mg/kg dose, liver, 15th day, 40 mg/kg): can be detected even on the 15th day; also recorded: could be still detected on the 15th day | amount of quinoxaline-2-carboxylic acid in liver, decrease ([1]; single 40 mg/kg dose, liver, each measuring point): significant decrease in the amount of quinoxaline-2-carboxylic acid at each measuring point | residue in the kidney vs. control ([1]; single dose, kidney, 1st and 5th days): essentially identical with the values obtained in the control group | residue in the kidney ([1]; single dose, kidney, 15th day): no reside can be detected | metabolite residue in liver, time of detection ([1]; three subsequent treatments, liver): a metabolite residue can be identified on the 5th day only | metabolite residue in liver vs. control and single dose ([1]; three subsequent treatments, liver, 5th day): substantially lower amount than in the control animals or in the group treated with a single dose of flumecinol | quinoxaline-2-carboxylic acid content of the kidney [1, 16]: .0. | quinoxaline-2-carboxylic acid content of the liver [1, 16]: 6.00 µg/kg | quinoxaline-2-carboxylic acid content of the muscle tissue [1, 17]: .0. | quinoxaline-2-carboxylic acid content of the muscle tissue [1, 18]: .0. | quinoxaline-2-carboxylic acid content of the muscle tissue ([1]; three treatments 40 mg/kg, 5th day, total): .0. | quinoxaline-2-carboxylic acid content of the kidney [1, 19]: .0. | quinoxaline-2-carboxylic acid content of the liver [1, 19]: .0. | quinoxaline-2-carboxylic acid content of the muscle tissue [1, 20]: .0. | quinoxaline-2-carboxylic acid content of the muscle tissue [1, 21]: .0. | quinoxaline-2-carboxylic acid content of the muscle tissue ([1]; three treatments 40 mg/kg, 15th day, total): .0. | amount of quinoxaline-2-carboxylic acid [1, 17]: .0. | amount of quinoxaline-2-carboxylic acid [1, 18]: .0. | amount of quinoxaline-2-carboxylic acid ([1]; three treatments 40 mg/kg, 5th day, kidney): .0. | amount of quinoxaline-2-carboxylic acid [1, 22]: 4 µg/kg and 6 µg/kg and 8 µg/kg | amount of quinoxaline-2-carboxylic acid [1, 20]: .0. | amount of quinoxaline-2-carboxylic acid [1, 21]: .0. | amount of quinoxaline-2-carboxylic acid ([1]; three treatments 40 mg/kg, 15th day, kidney): .0. | amount of quinoxaline-2-carboxylic acid [1, 23]: .0. | unpleasant odor released in the tissues by Carbadox administration ([2]; flumecinol treatment): eliminates the unpleasant odor | visual observation / organoleptic (odor) score [2, 5]: 1 | visual observation / organoleptic (odor) score [2, 6]: 1 | visual observation / organoleptic (odor) score [2, 13]: 3 | visual observation / organoleptic (odor) score [2, 8]: 1 | visual observation / organoleptic (odor) score [2, 9]: 1 | visual observation / organoleptic (odor) score [2, 14]: 2 | visual observation / organoleptic (odor) score [2, 11]: 1 | visual observation / organoleptic (odor) score [2, 12]: 1 | visual observation / organoleptic (odor) score [2, 15]: 1 | elimination of flumecinol from the tissue of pigs ([2]; pigs): rapidly eliminated from the tissue of pigs | undesired effects detected organoleptically ([2]; pigs): no undesired effects which could be detected organoleptically | visual observation / organoleptic (odor) score [2, 17]: 1 | visual observation / organoleptic (odor) score [2, 18]: 1 | visual observation / organoleptic (odor) score [2, 22]: 1 | visual observation / organoleptic (odor) score [2, 20]: 1 | visual observation / organoleptic (odor) score [2, 21]: 1 | visual observation / organoleptic (odor) score [2, 23]: 1 | induction of the polysubstrate monooxygenase enzyme system [3]: specific inductor of the polysubstrate monooxygenase enzyme system

Source: US4659712A, “Fodder additive and a process for the preparation” (Richter Gedeon Vegyeszeti Gyar Rt., priority 1984, dated 1987)
